How the values were obtained:
A549 [1] = experiment: Antiproliferative activity against human A549 cells assessed as reduction in cell viability after 24 to 72 hrs by MTT assay; assay type: functional, cell-based
[2] = biological target: NAD(P)H dehydrogenase [quinone] 1 (Mus musculus) (UniProt Q64669); experiment: Induction of quinone reductase in mouse Hepa1c1c7 cells at 100 uM incubated for 24 hrs by MTT based assay; assay type: cell-based; settings: filed as activator
[3] = biological target: NAD(P)H dehydrogenase [quinone] 1 (Mus musculus) (UniProt Q64669); experiment: Induction of quinone reductase in mouse Hepa1c1c7 cells at 50 uM incubated for 24 hrs by MTT based assay; assay type: cell-based; settings: filed as activator
A549 [4] = experiment: Induction of apoptosis in human A549 cells assessed as early apoptotic cells at 20 uM after 24 hrs by Annexin-V FITC/PI staining based flow cytometry analysis (reference value: 3.97 to 4.33%); assay type: functional
A549 [5] = experiment: Induction of cell cycle arrest in human A549 cells assessed as accumulation at S phase at 20 uM after 24 hrs by propodium iodide staining based flow cytometric analysis (reference value: 23.42 to 28.6%); assay type: functional
A549 [6] = experiment: Induction of cell cycle arrest in human A549 cells assessed as accumulation at G2/M phase at 5 uM after 24 hrs by propodium iodide staining based flow cytometric analysis (reference value: 10.66 to 10.98%); assay type: functional
A549 [7] = experiment: Induction of apoptosis in human A549 cells assessed as early apoptotic cells at 10 uM after 24 hrs by Annexin-V FITC/PI staining based flow cytometry analysis (reference value: 3.97 to 4.33%); assay type: functional
A549 [8] = experiment: Induction of cell cycle arrest in human A549 cells assessed as accumulation at S phase at 5 uM after 24 hrs by propodium iodide staining based flow cytometric analysis (reference value: 23.42 to 28.6%); assay type: functional
A549 [9] = experiment: Induction of cell cycle arrest in human A549 cells assessed as accumulation at G0/G1 phase at 10 uM after 24 hrs by propodium iodide staining based flow cytometric analysis (reference value: 60.74 to 65.6%); assay type: functional
A549 [10] = experiment: Induction of apoptosis in human A549 cells assessed as late apoptotic cells at 10 uM after 24 hrs by Annexin-V FITC/PI staining based flow cytometry analysis (reference value: 9.6%); assay type: functional
A549 [11] = experiment: Induction of cell cycle arrest in human A549 cells assessed as accumulation at G2/M phase at 10 uM after 24 hrs by propodium iodide staining based flow cytometric analysis (reference value: 10.66 to 10.98%); assay type: functional
A549 [12] = experiment: Induction of apoptosis in human A549 cells assessed as late apoptotic cells at 20 uM after 24 hrs by Annexin-V FITC/PI staining based flow cytometry analysis (reference value: 9.6%); assay type: functional
A549 [13] = experiment: Induction of cell cycle arrest in human A549 cells assessed as accumulation at S phase at 10 uM after 24 hrs by propodium iodide staining based flow cytometric analysis (reference value: 23.42 to 28.6%); assay type: functional
A549 [14] = experiment: Induction of cell cycle arrest in human A549 cells assessed as accumulation at G2/M phase at 20 uM after 24 hrs by propodium iodide staining based flow cytometric analysis (reference value: 10.66 to 10.98%); assay type: functional
A549 [15] = experiment: Induction of cell cycle arrest in human A549 cells assessed as accumulation at G0/G1 phase at 20 uM after 24 hrs by propodium iodide staining based flow cytometric analysis (reference value: 60.74 to 65.6%); assay type: functional
A549 [16] = experiment: Induction of cell cycle arrest in human A549 cells assessed as accumulation at G0/G1 phase at 5 uM after 24 hrs by propodium iodide staining based flow cytometric analysis (reference value: 60.74 to 65.6%); assay type: functional
[17] = Homo sapiens, A549, read-out: IC50

Chain of NAD(P)H dehydrogenase [quinone] 1 (Mus musculus) (Q64669 whole entry): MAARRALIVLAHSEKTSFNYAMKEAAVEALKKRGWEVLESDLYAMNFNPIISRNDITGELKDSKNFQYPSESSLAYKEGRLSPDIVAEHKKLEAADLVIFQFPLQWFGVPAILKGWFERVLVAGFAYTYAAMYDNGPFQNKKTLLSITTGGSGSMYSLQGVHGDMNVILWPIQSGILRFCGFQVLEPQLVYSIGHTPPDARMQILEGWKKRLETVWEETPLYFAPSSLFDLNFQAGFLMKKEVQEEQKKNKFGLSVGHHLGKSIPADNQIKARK

Question: With `C=C/C(C)=C/C[C@]1(C)[C@H](C)C[C@H](OC(=O)[C@@H](C)CC)[C@@]23C(=C[C@H](O)C[C@@H]12)[C@@H](OC(C)=O)O[C@H]3OC(C)=O` as the compound, how does the IC50 (A549 [1]; a549) read?
Answer: Not Active

Question: With `CC(=O)O[C@H]1O[C@@H](OC(C)=O)[C@]23C1=C[C@H](OC(=O)CC(C)C)C[C@H]2[C@](C)(C/C=C/C=O)[C@H](C)C[C@@H]3O` as the compound, how does the IC50 (A549 [1]; a549) read?
Answer: Not Active

Question: With `C/C1=C/C[C@@H]2[C@@](C)(C/C=C(\C)CC[C@@H]1O)CC[C@@]2(O)C(C)C` as the compound, how does the IC50 (A549 [1]; a549) read?
Answer: Not Active

Question: And the fold change (FC) [2]?
Answer: 1.5

Question: What does the source list for `C/C1=C\C[C@@]2(C)CC[C@@](O)(C(C)C)[C@@H]2C/C=C(\C)[C@@H](O)CC1`?
Answer: IC50 (A549 [1]; a549): Not Active; fold change (FC) [2]: 1.5

Question: What does the source list for `CC1=CC[C@H](O)[C@@]2(C)CC[C@@H]3[C@](C)(CC[C@@]3(O)C(C)C)C[C@H]12`?
Answer: fold change (FC) [3]: 1.4; IC50 (A549 [1]; a549): Not Active

Question: With `C=C/C(C)=C/C[C@]1(C)[C@H](C)C[C@H](OC(=O)[C@@H](C)CC)[C@@]23C(=CC(=O)C[C@@H]12)[C@@H](OC(C)=O)O[C@H]3OC(C)=O` as the compound, how does the IC50 (A549 [1]; a549) read?
Answer: Not Active

Question: With `CC(=O)O[C@H]1O[C@@H](OC(C)=O)[C@]23C1=C[C@H](OC(=O)C(C)C)C[C@H]2[C@](C)(C/C=C(\C)C=O)[C@H](C)C[C@@H]3O` as the compound, how does the IC50 (A549 [1]; a549) read?
Answer: Not Active

Question: Which results are given for `C=CC(=C)[C@H](O)C[C@]1(C)[C@H](C)C[C@H](O)[C@@]23C(=C[C@H](OC(=O)CC(C)C)C[C@@H]12)[C@@H](OC(C)=O)O[C@H]3OC(C)=O`?
Answer: Activity (A549 [4]): 10.41%; Activity (A549 [5]): 61.05%; Activity (A549 [6]): 11.21%; Activity (A549 [7]): 5.44%; IC50 (A549 [1]; [17]): 4.6 µM; Activity (A549 [8]): 24.62%; Activity (A549 [9]): 55.45%; Activity (A549 [10]): 10.45%; Activity (A549 [11]): 13.21%; Activity (A549 [12]): 35.73%; Activity (A549 [13]): 31.33%; Activity (A549 [14]): 0%; Activity (A549 [15]): 38.95%; Activity (A549 [16]): 64.17%

Question: How did the IC50 (A549 [1]; a549) turn out when `CC1=C2C[C@@]3(C)CC[C@@](O)(C(C)C)[C@@H]3CC[C@]2(C)[C@@H](O)CC1` was run?
Answer: Not Active

Question: Which IC50 (A549 [1]; a549) does the source give for `C/C1=C\CC[C@@]2(C)O[C@@H]2C[C@H]2C(=O)C=C(C(C)C)[C@]2(O)CC1` here?
Answer: Not Active

Question: What about the fold change (FC) [2] of the same compound?
Answer: 1.9

Question: `CC(=O)O[C@H]1O[C@@H](OC(C)=O)[C@]23C1=C[C@H](OC(=O)CC(C)C)C[C@H]2[C@](C)(C/C=C(\C)C=O)[C@H](C)C[C@@H]3O` was tested. Which Activity (A549 [4]) did it give?
Answer: 13.7%

Question: What about the Activity (A549 [5]) of the same compound?
Answer: 34.59%

Question: And the Activity (A549 [6])?
Answer: 11.09%

Question: What about the Activity (A549 [7]) of the same compound?
Answer: 6.04%

Question: And the IC50 (A549 [1]; [17])?
Answer: 4.4 µM

Question: And the Activity (A549 [8])?
Answer: 27.45%

Question: What about the Activity (A549 [9]) of the same compound?
Answer: 56.99%

Question: What about the Activity (A549 [10]) of the same compound?
Answer: 9.94%

Question: And the Activity (A549 [11])?
Answer: 19.14%

Question: What about the Activity (A549 [12]) of the same compound?
Answer: 25.27%

Question: And the Activity (A549 [13])?
Answer: 23.87%

Question: What about the Activity (A549 [14]) of the same compound?
Answer: 20.56%

Question: And the Activity (A549 [15])?
Answer: 44.84%

Question: For `C=C/C(C)=C/C[C@]1(C)[C@H](C)C[C@H](OC(=O)C(C)C)[C@@]23C(=C[C@H](O)C[C@@H]12)[C@@H](OC(C)=O)O[C@H]3OC(C)=O`, which IC50 (A549 [1]; a549) is on record?
Answer: Not Active

Question: With `C/C1=C\CC[C@]2(C)O[C@H]2C[C@@H]2C(=O)C=C(C(C)C)[C@@]2(O)CC1` as the compound, how does the IC50 (A549 [1]; a549) read?
Answer: Not Active

Question: And the fold change (FC) [2]?
Answer: 1.5

Question: Which IC50 (A549 [1]; a549) does the source give for `C=C1CC[C@@H]2[C@@](C)(C/C=C(\C)CC[C@@H]1O)CC[C@@]2(O)C(C)C` here?
Answer: Not Active

Question: And the fold change (FC) [2]?
Answer: 1.5

Question: Which IC50 (A549 [1]; a549) does the source give for `C=C/C(C)=C/C[C@]1(C)[C@H](C)C[C@H](OC(=O)CC(C)C)[C@@]23C(=C[C@H](O)C[C@@H]12)[C@@H](OC(C)=O)O[C@H]3OC(C)=O` here?
Answer: Not Active

— ChEMBL document CHEMBL4699535, “Dolabellane and Clerodane Diterpenoids from the Twigs and Leaves of Casearia kurzii” (J Nat Prod, 2020)
